The source made the active and inactive calls. How the calls were made is not given here.
Tests used:
Assay in all cases: mouse tissue hydrolase off-target engagement – ABPP MudPIT, LC-MS, in vivo study for DAGLb inhibitor project, late-stage follow-up (AID 602353)
[1] = test system: Abhd10; settings: FP-probe spectral counts, vehicle vs compound significance, stronger effect = lower value
[2] = test system: Abhd11; settings: FP-probe spectral counts, stronger effect = lower value
[3] = test system: Abhd12; settings: FP-probe spectral counts, stronger effect = lower value
[4] = test system: Abhd6; settings: FP-probe spectral counts, vehicle vs compound significance, stronger effect = lower value
[5] = test system: Acot1; settings: FP-probe spectral counts, stronger effect = lower value
[6] = test system: Acot2; settings: FP-probe spectral counts, stronger effect = lower value
[7] = molecular target: Acyl-protein thioesterase 1 (Mus musculus) (UniProt P97823); settings: FP-probe spectral counts, Lypla1, stronger effect = lower value
[8] = test system: Aoah; settings: FP-probe spectral counts, stronger effect = lower value
[9] = test system: Apeh; settings: FP-probe spectral counts, stronger effect = lower value
[10] = test system: Ctsa; settings: FP-probe spectral counts, stronger effect = lower value
[11] = test system: Ctsg; settings: FP-probe spectral counts, stronger effect = lower value
[12] = test system: Daglb; settings: FP-probe spectral counts, vehicle vs compound significance, stronger effect = lower value
[13] = molecular target: Diacylglycerol lipase-beta (Mus musculus) (UniProt Q91WC9); settings: FP-probe spectral counts, Daglb, stronger effect = lower value
[14] = test system: Dpp4; settings: FP-probe spectral counts, stronger effect = lower value
[15] = test system: Dpp7; settings: FP-probe spectral counts, stronger effect = lower value
[16] = test system: Dpp8; settings: FP-probe spectral counts, stronger effect = lower value
[17] = test system: Dpp9; settings: FP-probe spectral counts, stronger effect = lower value
[18] = test system: Elane; settings: FP-probe spectral counts, stronger effect = lower value
[19] = test system: Fam108b; settings: FP-probe spectral counts, stronger effect = lower value
[20] = test system: Fasn; settings: FP-probe spectral counts, stronger effect = lower value
[21] = test system: Iah1; settings: FP-probe spectral counts, stronger effect = lower value
[22] = test system: Kiaa1363; settings: FP-probe spectral counts, stronger effect = lower value
[23] = test system: Lipe; settings: FP-probe spectral counts, stronger effect = lower value
[24] = test system: Lpl; settings: FP-probe spectral counts, stronger effect = lower value
[25] = test system: Lypla1; settings: FP-probe spectral counts, vehicle vs compound significance, stronger effect = lower value
[26] = test system: Lypla2; settings: FP-probe spectral counts, stronger effect = lower value
[27] = test system: Magl; settings: FP-probe spectral counts, stronger effect = lower value
[28] = molecular target: Monoacylglycerol lipase ABHD6 (Mus musculus) (UniProt Q8R2Y0); settings: FP-probe spectral counts, stronger effect = lower value
[29] = test system: Pafah1b2; settings: FP-probe spectral counts, stronger effect = lower value
[30] = test system: Pafah1b3; settings: FP-probe spectral counts, stronger effect = lower value
[31] = test system: Pafah2; settings: FP-probe spectral counts, vehicle vs compound significance, stronger effect = lower value
[32] = molecular target: Palmitoyl-protein thioesterase ABHD10, mitochondrial (Mus musculus) (UniProt Q6PE15); settings: FP-probe spectral counts, stronger effect = lower value
[33] = test system: Parl; settings: FP-probe spectral counts, stronger effect = lower value
[34] = test system: Pla2g15; settings: FP-probe spectral counts, stronger effect = lower value
[35] = test system: Pla2g7; settings: FP-probe spectral counts, vehicle vs compound significance, stronger effect = lower value
[36] = molecular target: Platelet-activating factor acetylhydrolase (Mus musculus) (UniProt Q60963); settings: FP-probe spectral counts, Pla2g7, stronger effect = lower value
[37] = molecular target: Platelet-activating factor acetylhydrolase 2, cytoplasmic (Mus musculus) (UniProt Q8VDG7); settings: FP-probe spectral counts, Pafah2, stronger effect = lower value
[38] = test system: Pnpla6; settings: FP-probe spectral counts, stronger effect = lower value
[39] = test system: Pnpla7; settings: FP-probe spectral counts, stronger effect = lower value
[40] = test system: Pnpla8; settings: FP-probe spectral counts, stronger effect = lower value
[41] = test system: Prcp; settings: FP-probe spectral counts, stronger effect = lower value
[42] = vehicle vs compound significance

Sequence of Palmitoyl-protein thioesterase ABHD10, mitochondrial (Mus musculus) (Q6PE15 whole entry, looked up): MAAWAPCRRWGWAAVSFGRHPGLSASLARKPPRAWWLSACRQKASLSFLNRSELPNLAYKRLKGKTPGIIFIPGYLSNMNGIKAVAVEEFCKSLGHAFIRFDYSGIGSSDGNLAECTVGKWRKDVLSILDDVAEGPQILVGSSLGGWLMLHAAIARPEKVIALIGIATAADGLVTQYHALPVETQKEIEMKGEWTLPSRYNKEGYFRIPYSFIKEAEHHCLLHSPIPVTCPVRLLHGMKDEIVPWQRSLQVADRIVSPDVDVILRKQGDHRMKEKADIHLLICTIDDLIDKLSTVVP
Sequence of Platelet-activating factor acetylhydrolase 2, cytoplasmic (Mus musculus) (Q8VDG7 whole entry, looked up): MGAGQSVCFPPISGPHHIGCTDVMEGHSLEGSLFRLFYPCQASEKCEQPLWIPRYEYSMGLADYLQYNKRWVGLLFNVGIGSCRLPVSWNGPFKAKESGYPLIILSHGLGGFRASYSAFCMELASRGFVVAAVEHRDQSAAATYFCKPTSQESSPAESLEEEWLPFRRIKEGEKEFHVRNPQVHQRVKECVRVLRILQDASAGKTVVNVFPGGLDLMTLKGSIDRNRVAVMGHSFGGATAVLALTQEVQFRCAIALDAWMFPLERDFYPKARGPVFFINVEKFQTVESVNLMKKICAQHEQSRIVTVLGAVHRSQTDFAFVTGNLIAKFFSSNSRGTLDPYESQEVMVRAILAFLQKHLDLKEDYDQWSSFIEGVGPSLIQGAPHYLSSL
Sequence of Platelet-activating factor acetylhydrolase (Mus musculus) (Q60963 whole entry, looked up): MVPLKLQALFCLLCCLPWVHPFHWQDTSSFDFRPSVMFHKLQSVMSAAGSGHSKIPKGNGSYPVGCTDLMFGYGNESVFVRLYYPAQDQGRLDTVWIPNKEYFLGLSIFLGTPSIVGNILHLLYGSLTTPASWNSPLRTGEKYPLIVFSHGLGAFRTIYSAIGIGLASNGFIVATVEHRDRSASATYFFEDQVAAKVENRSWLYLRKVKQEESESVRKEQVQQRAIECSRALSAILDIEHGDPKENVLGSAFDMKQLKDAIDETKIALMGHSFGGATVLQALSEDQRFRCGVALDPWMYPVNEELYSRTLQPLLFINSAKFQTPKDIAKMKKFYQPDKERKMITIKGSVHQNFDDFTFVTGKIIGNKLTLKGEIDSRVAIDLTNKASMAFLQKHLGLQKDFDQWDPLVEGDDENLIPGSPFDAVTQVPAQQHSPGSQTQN
Sequence of Diacylglycerol lipase-beta (Mus musculus) (Q91WC9 whole entry, looked up): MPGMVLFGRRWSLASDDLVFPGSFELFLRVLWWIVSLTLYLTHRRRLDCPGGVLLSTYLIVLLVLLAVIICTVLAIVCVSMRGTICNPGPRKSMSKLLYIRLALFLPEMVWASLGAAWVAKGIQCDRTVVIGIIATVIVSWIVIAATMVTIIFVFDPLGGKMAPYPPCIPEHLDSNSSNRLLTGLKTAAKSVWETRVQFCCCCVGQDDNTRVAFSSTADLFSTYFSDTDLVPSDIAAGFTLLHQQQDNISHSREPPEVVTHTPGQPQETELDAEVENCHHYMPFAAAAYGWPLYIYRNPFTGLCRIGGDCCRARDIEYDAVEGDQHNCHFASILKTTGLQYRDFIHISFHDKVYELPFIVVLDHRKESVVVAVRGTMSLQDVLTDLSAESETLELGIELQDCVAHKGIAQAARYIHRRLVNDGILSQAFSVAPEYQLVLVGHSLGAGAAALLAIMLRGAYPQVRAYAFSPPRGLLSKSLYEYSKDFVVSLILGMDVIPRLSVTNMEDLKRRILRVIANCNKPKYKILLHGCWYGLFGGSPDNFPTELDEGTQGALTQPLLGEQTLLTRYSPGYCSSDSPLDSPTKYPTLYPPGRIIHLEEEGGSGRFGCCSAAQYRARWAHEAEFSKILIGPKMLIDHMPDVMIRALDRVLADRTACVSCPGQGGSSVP
Sequence of Acyl-protein thioesterase 1 (Mus musculus) (P97823 whole entry, looked up): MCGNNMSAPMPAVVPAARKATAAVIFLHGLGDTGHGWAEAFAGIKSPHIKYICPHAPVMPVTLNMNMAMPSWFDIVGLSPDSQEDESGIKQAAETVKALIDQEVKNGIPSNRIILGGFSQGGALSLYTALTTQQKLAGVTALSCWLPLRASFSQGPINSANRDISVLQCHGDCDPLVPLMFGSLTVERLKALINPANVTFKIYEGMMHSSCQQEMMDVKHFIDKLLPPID
Sequence of Monoacylglycerol lipase ABHD6 (Mus musculus) (Q8R2Y0 whole entry, looked up): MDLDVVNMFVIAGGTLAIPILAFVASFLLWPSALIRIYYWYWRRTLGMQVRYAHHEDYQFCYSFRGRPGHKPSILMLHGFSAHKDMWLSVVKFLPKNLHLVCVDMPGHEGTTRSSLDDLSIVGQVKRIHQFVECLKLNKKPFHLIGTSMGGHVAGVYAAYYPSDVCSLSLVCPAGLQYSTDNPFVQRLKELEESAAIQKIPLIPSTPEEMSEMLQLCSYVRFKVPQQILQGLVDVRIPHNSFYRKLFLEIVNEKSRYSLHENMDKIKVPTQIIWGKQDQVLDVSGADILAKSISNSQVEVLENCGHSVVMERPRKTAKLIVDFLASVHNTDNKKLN

- P value [1]: 0.961
- spectral counts, test compound [2]: 23 (inactive)
- P value [2, 42]: 0.167
- spectral counts, test compound [3]: 64.7 (inactive)
- P value [3, 42]: 0.512
- P value [4]: 0.033
- spectral counts, test compound [5]: 48.3 (inactive)
- P value [5, 42]: 0.802
- spectral counts, test compound [6]: 85 (inactive)
- P value [6, 42]: 0.094
- spectral counts, test compound [7]: 84 (inactive)
- spectral counts, test compound [8]: 35.7 (inactive)
- P value [8, 42]: 0.389
- spectral counts, test compound [9]: 252 (inactive)
- P value [9, 42]: 0.731
- spectral counts, test compound [10]: 57.7 (inactive)
- P value [10, 42]: 0.562
- spectral counts, test compound [11]: 283 (inactive)
- P value [11, 42]: 0.854
- P value [12]: 0.004
- spectral counts, test compound [13]: 0
- spectral counts, test compound [14]: 146 (inactive)
- P value [14, 42]: 0.754
- spectral counts, test compound [15]: 61.7 (inactive)
- P value [15, 42]: 0.138
- spectral counts, test compound [16]: 31.3 (inactive)
- P value [16, 42]: 0.949
- spectral counts, test compound [17]: 134 (inactive)
- P value [17, 42]: 0.213
- spectral counts, test compound [18]: 120 (inactive)
- P value [18, 42]: 0.837
- spectral counts, test compound [19]: 24 (inactive)
- P value [19, 42]: 0.757
- spectral counts, test compound [20]: 178 (inactive)
- P value [20, 42]: 0.517
- spectral counts, test compound [21]: 22.3 (inactive)
- P value [21, 42]: 0.127
- spectral counts, test compound [22]: 206 (inactive)
- P value [22, 42]: 0.156
- spectral counts, test compound [23]: 76 (inactive)
- P value [23, 42]: 0.299
- spectral counts, test compound [24]: 20.3 (inactive)
- P value [24, 42]: 0.81
- P value [25]: 0.819
- spectral counts, test compound [26]: 118 (inactive)
- P value [26, 42]: 0.278
- spectral counts, test compound [27]: 5.67 (inactive)
- P value [27, 42]: 0.368
- spectral counts, test compound [28]: 0
- spectral counts, test compound [29]: 66 (inactive)
- P value [29, 42]: 0.317
- spectral counts, test compound [30]: 35 (inactive)
- P value [30, 42]: 0.532
- P value [31]: 0.491
- spectral counts, test compound [32]: 22.3 (inactive)
- spectral counts, test compound [33]: 20 (inactive)
- P value [33, 42]: 0.382
- spectral counts, test compound [34]: 15 (inactive)
- P value [34, 42]: 0.135
- P value [35]: 0.996
- spectral counts, test compound [36]: 97.3 (inactive)
- spectral counts, test compound [37]: 33.7 (inactive)
- spectral counts, test compound [38]: 11.3 (inactive)
- P value [38, 42]: 0.696
- spectral counts, test compound [39]: 34.3 (inactive)
- P value [39, 42]: 0.536
- spectral counts, test compound [40]: 3.67 (inactive)
- P value [40, 42]: 0.35
- spectral counts, test compound [41]: 133 (inactive)
- P value [41, 42]: 0.736
Compound: COc1ccccc1-c1ccc(-c2cn(C(=O)N3CCCCC3Cc3ccccc3)nn2)cc1 (stereo not given)
